Key:
[1] = Anti-oxidation activity: peroxide value of linoleic acid with added sample; details: sample 0.5% in linoleic acid, stored at 40° C.
Protocol: An examination was made of the anti-oxidation activity of the polyoxypropylenepolyoxyethylene vitamin E, using linoleic acid. The linoleic acid used was a reagent purchased from Sigma, U.S.A., comprising linoleic acid 75% and linolenic acid 12.5%.
The polyoxypropylenepolyoxyethylene vitamin E(1) prepared in Example I was added at an amount of 0.5% in the linoleic acid while vitamin E, vitamin E acetate, polyoxyethylene (12EO) vitamin E, polyoxyethylene (20EO) sorbitan monostearate (TWEEN-60), and polyoxyethylene (12EO) nonylphenylether (Igepal-CO880) were also used as references. These samples were stored in an incubator maintained at 40° C. At two days and ten days after the incubation, a peroxide value was determined for each sample. In detail, in a 250 ml Erlenmeyer flask was placed 1.0 g of each of the samples, and 10 ml of chloroform were added to dissolve the sample, after which 15 ml of glacial acetic acid and 1 ml of saturated potassium iodide solution were added and a stopper was put in the flask. After being vigorously shaken, the flask was allowed to stand in a dark place for 5 min. Thereafter, the flask was added with 75 ml of distilled water and vigorously shaken. Free iodine was titrated with a 0.01 N sodium thiosulfate solution, using a starch solution as an indicator. The point at which the solution became colorless was regarded as the end point. The peroxide value was calculated as follows: [formula]
S: Amount of 0.01 N sodium thiosulfate solution consumed by sample (ml)
B: Amount of 0.01 N sodium thiosulfate solution consumed in blank test tube (ml)
F: Factor of 0.01 N sodium thiosulfate solution

rabbits = assay: Primary eye irritation test according to Draize; assay type: in vivo
Protocol: In order to evaluate the safety of the novel polyoxypropylenepolyoxyethylene vitamin E, a primary eye irritation test was conducted on rabbits as taught by Draize. The polyoxypropylenepolyoxyethylene vitamin E (5) prepared in Example V, polyoxyethylene (12EO) nonylphenylether and polyoxyethylene (20EO) sorbitan monostearate each was diluted with a 10% aqueous glycerine solution to give a 10% sample solution. This test sample was dropped onto one eye of each of 6 rabbits weighing 2-3 kg while the other eye was used as a control. 24 hours later, the average scores were recorded according to the Draize scoring for ocular lesions. If lesions were present, the time was extended; otherwise, observation was ceased.

human body = assay: Patch test, Finn Chamber method; assay type: in vivo; details: human brachium, ICDRG standard
Protocol: In order to confirm non-toxicity of the polyoxypropylenepolyoxyethylene vitamin E according to the present invention, a patch test was conducted on the human body according to the Finn Chamber method. The subjects of this test were all females 15-35 years old. A sample material was dropped onto the brachium of each of the subjects and a dermicel tape was bonded thereto. The skin irritations were evaluated as a response rate (%) according to an International Contact Dermatitis Research Group (ICDRG) standard after 24 or 48 hour.

[2] = Surface tension by the du Nuoy method; assay type: physicochemical; details: 0.1% aqueous solution, 20° C.
Protocol: At 20° C., 0.1% solutions of samples in water were measured for surface tension according to the du Nuoy method with the aid of a surface tension balance manufactured by Fisher Scientific.

[3] = Foaming ability and foam stability, dynamic foam test; assay type: physicochemical; details: 20° C.; for Foam Stability: 0.1% solution in water, foam at three minutes after stirring; for Foaming Ability: 0.1% solution in water, 1,000 rpm, 1 min
Protocol: The foaming ability and foam stability were determined according to a dynamic foam test. First, in a 2 L scaled cylinder with an inner diameter of 10 cm were charged 40 ml of a 0.1% solution of each sample in water and the solution was stirred at 1,000 rpm 20° C. for 1 min with an agimixer. The height of the foam layer thus formed was regarded as foaming ability while the ratio of the volume of the foam layer formed immediately after the stirring to the same maintained at three minutes after the stirring, was denoted as foam stability.

## polyoxyethylene (12EO) nonylphenylether [12EO nonylphenylether]
[1]
  Peroxide Values After 2 days: 28.9
  Peroxide Values After 10 days: 178.5
rabbits; rabbit, in vivo
  Eye irritation, Avg. Values (Draize scoring for ocular lesions): 0.35
Human body
  Response Rate, 24 h: 2.4%
  Response Rate, 48 h: 2.0%

## vitamin E
[1]
  Peroxide Values After 2 days: 21.6
  Peroxide Values After 10 days: 58.9

## CC(=O)Oc1c(C)c(C)c2c(c1C)CCC(C)(CCC[C@H](C)CCC[C@H](C)CCCC(C)C)O2 (stereo partly shown) [Acetate of vitamin E, vitamin E acetate]
[1]
  Peroxide Values After 2 days: 27.2
  Peroxide Values After 10 days: 123.3

## polyoxyethylene (12EO) vitamin E [12EO vitamin E]
[2]
  Surface Tension: 56.3 dyne/cm
[3]
  Foam Stability: 46.5%
  Foaming Ability: 125 cc
[1]
  Peroxide Values After 2 days: 26.0
  Peroxide Values After 10 days: 124.6
rabbits; rabbit, in vivo
  Eye irritation, Avg. Values (Draize scoring for ocular lesions): 0.19
Human body
  Response Rate, 24 h: 1.6%
  Response Rate, 48 h: 0.8%

## polyoxyethylene (24EO) cholesterol [24 EO Cholesterol]
[2]
  Surface Tension: 38.4 dyne/cm
[3]
  Foam Stability: 89.6%
  Foaming Ability: 246 cc

## polyoxyethylene (20EO) sorbitan monostearate [20EO sorbitan mono stearate]
[1]
  Peroxide Values After 2 days: 25.0
  Peroxide Values After 10 days: 126.6
rabbits; 10% sample solution in 10% aqueous glycerine, rabbit eye, 24 hours
  Eye irritation, Avg. Values (Draize scoring for ocular lesions): 0.16
Human body
  Response Rate, 24 h: 0.6%
  Response Rate, 48 h: 0.0%

— patent US6355811B1, “Polyoxypropylenepolyethylene vitamin E and preparation thereof” (priority 1998, dated 2002)
